Measured values taken from patent publication US20220324909A1, “THERAPEUTIC PEPTIDES” (COHBAR, INC., priority 2019, published 2022).
Non-standard residues stand in square brackets, D forms with d. No end group written: not given here.

Experiments:
C2C12 cells = test: Glucose utilization in cultured C2C12 cells and insulin dependence; format: cell-based, mouse; conditions: for Glucose Utilization, Percent of Control Activity No Insulin: peptide 10 μM alone, glucose in medium relative to untreated cells; for Glucose Utilization, Percent of Control Activity No Insulin / Glucose Utilization, Percent of Control Activity With Insulin: 22 h; for Glucose Utilization, Percent of Control Activity With Insulin: peptide 10 μM with 5-20 nM insulin, glucose in medium relative to insulin treated cells
Text: The effect of the peptides on glucose homeostasis can be assessed using an assay to monitor glucose utilization by cultured cells such as mouse myotubes. […] C2C12 mouse muscle cell line was purchased from Millipore Sigma (Saint Louis, Mo.). […] Three days after plating the medium was removed and with Differentiation Medium (DMEM/low glucose (1 g/L)+2% Horse Serum+antibiotics) added. […] After 5 days of differentiation, the medium was removed from myotube cultures and replaced with Assay Medium (DMEM/low glucose (1 g/L)+antibiotics). […] Following the 5 h incubation the medium was removed and fresh Assay Medium containing compounds added; 10 μM peptide in absence or presence of 5-20 nM insulin, or 1 mM metformin as a potent stimulator of glucose utilization. […] Following 22 h incubation, conditioned medium from each well was transferred to a fresh 96-well plate. Glucose concentrations in the medium were determined using a Glucose Assay kit (Abcam; Cambridge, Mass.) according to the manufacturer's instructions; absorbance measured using a Cytation 3 plate reader at 570 nm (BioTek, Winooski, Vt.). Absorbance values were expressed as percent control activity relative to untreated treated cells (no insulin) for 10 μM peptide alone or 5-20 nM insulin treated cells (with insulin) for 10 μM peptide in presence of 5-20 nM insulin. Untreated cells were used as reference for basal glucose utilization. The relative standard deviation from plate to plate of untreated control was <10%. Metformin at 1 mM was used as a potent control for increasing glucose utilization. Glucose levels for metformin (1 mM) treatment were <10% of the untreated control value. Data are presented as averages values from 2-3 independent experiments with each data point performed in triplicate.

H4-IIE cells = test: Glucose production in cultured H4-IIE cells and insulin dependence; format: cell-based, rat; conditions: 24 h; for Glucose Production, Percent of Control Activity No Insulin: peptide 10 μM alone, relative to untreated cells; for Glucose Production, Percent of Control Activity With Insulin: peptide 10 μM with 800 μM insulin, relative to insulin treated cells
Method: The effect of the peptides on glucose homeostasis can be assessed using an assay to monitor glucose production by cultured cells such as rat hepatocytes. […] Following 24 h incubation, conditioned medium from each well was transferred to a fresh 96-well plate. Glucose concentrations in the medium were determined using a Glucose Assay kit (Abcam; Cambridge, Mass.) according to the manufacturer's instructions; absorbance measured using a Cytation 3 plate reader at 570 nm (BioTek, Winooski, Vt.). […] Untreated cells were used as reference for maximal glucose production. […] Insulin at 800 μM was used as a modest inhibitor glucose production. […] Data are presented as averages values from 2-4 independent experiments with each data point performed in triplicate.

3T3-L1 mouse adipocytes = test: Free fatty acid levels in cultured 3T3-L1 mouse adipocytes and insulin dependence (Example 17); format: cell-based; conditions: isoproterenol 0.1 nM; for Free Fatty Acid Levels, Percent of Isoproterenol Control Activity No Insulin: peptide 10 μM alone, relative to isoproterenol treated cells; for Free Fatty Acid Levels, Percent of Isoproterenol Control Activity With Insulin: peptide 10 μM with 0.25 nM insulin, relative to 0.25 nM insulin treated cells
Method: The effect of the peptides on fatty acid metabolism can be assessed using an assay to monitor free fatty acid levels produced by cultured cells such as mouse adipocytes. […] Following 3 h incubation, conditioned medium from each well was transferred to a fresh 96-well plate. […] Absorbance values were expressed as percent control activity relative to 0.1 nM isoproterenol treated cells (no insulin) for 10 μM peptide alone or 0.25 nM insulin treated cells (with insulin) for 10 μM peptide in presence of 0.25 nM insulin. […] Data are presented as averages values from 2-3 independent experiments with each data point performed in triplicate.

Compound	Glucose Utilization, Percent of Control Activity No Insulin (C2C12 cells) [%]	Glucose Utilization, Percent of Control Activity With Insulin (C2C12 cells) [%]	Glucose Production, Percent of Control Activity No Insulin (H4-IIE cells) [%]	Glucose Production, Percent of Control Activity With Insulin (H4-IIE cells) [%]	Free Fatty Acid Levels, Percent of Isoproterenol Control Activity No Insulin (3T3-L1 mouse adipocytes) [%]	Free Fatty Acid Levels, Percent of Isoproterenol Control Activity With Insulin (3T3-L1 mouse adipocytes) [%]	Glucose levels, % of untreated control value (C2C12 cells; metformin 1 mM, positive control) [%]
26 (RREMVYQCLEG[dA]) [compound 26]	102.2	98.4	111.5	103.1	104	52.8	–
30 (RRMMGMVAQCLEGA; (14)..(14) RRMMGMVAQCLEG(A) [compound 30]	97.7	88.3	105.7	65.7	102	56.0	–
CN(C)C(=N)N=C(N)N [metformin, reference compound]	–	–	–	–	–	–	< 10
23 (RRMVFQCLEG[dA]) [compound 23]	102	86.6	104.3	57.7	104	57.7	–
27 (RRMAYQCLEG[dA]) [compound 27]	101.2	106.2	101.7	98.9	108	74.2	–
25 (RREMVYQCLCG[dA]; cysteine pairing not given here) [compound 25]	99.9	77.4	108.2	65.2	110	67.4	–
24 (RRMVYQCLEG[dA]) [compound 24]	98.8	85.8	107.6	61.9	108	59.2	–
28 (RRMGYQCLEG[dA]) [compound 28]	103.3	88.2	107.4	91.4	109	57.8	–
31 (RRMEVYQCLCG[dA]; not fully specified; printed as RRMEVYQCLCG(dA); cysteine pairing not given here) [compound 31]	103.7	99.2	95.5	108.3	113	94.6	–
29 (RRMMGMVYQCLEG[dA]) [compound 29]	99.2	92.3	113.9	148.6	110	52.8	–
